{
  "source": "PubChem BioAssay AID1963428",
  "about": "(Molecular Pharmacology Branch, DTP, NCI, 2024);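 for viability, T/C: spheroids exposed to compounds for 7 days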",
  "system": "171881-019-R-J1-PDC complex spheroid growth, % test/control",
  "experiment": "Anticancer human tumor 171881-019-R-J1-PDC patient-derived invasive breast carcinoma cell line growth inhibition [Asc]",
  "conditions": "for IC50: curve of first compound; for viability, T/C: stronger effect = lower value",
  "procedure,_shortened": "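Spheroid model: tumor line + HUVEC + hMSC. Single agents and combinations; top conc. at/near clinical Cmax (10 microM if undetermined), half-log dilutions. DMSO stocks at 800-fold test concentration.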",
  "data": [
    {"smiles": "Cc1nc(N2CCC3(CC2)COC(C)C3N)c(CO)nc1Sc1ccnc(N)c1Cl", "note": "(stereo not given) + CCN1C(C(=O)NC23CCC(C(=O)O)(CC2)CC3)C(c2cccc(Cl)c2F)C2(C(=O)Nc3cc(Cl)ccc32)C12CCCCC2", "values": [
      {"measurement": "IC50", "setting": "second compound 0.03 µM", "result": "> 3", "unit": "µM"},
      {"measurement": "IC50", "setting": "second compound 0.0949 µM", "result": "> 3", "unit": "µM"},
      {"measurement": "IC50", "setting": "second compound 0.3 µM", "result": "> 3", "unit": "µM"},
      {"measurement": "IC50", "setting": "second compound 0.949 µM", "result": "> 3", "unit": "µM"},
      {"measurement": "IC50", "setting": "second compound 3 µM", "result": "> 3", "unit": "µM"},
      {"measurement": "viability, T/C", "setting": "second compound 0.03 µM, first compound 0.00949 µM", "result": 87.3, "unit": "%"},
      {"measurement": "viability, T/C", "setting": "second compound 0.03 µM, first compound 0.03 µM", "result": 101, "unit": "%"},
      {"measurement": "viability, T/C", "setting": "second compound 0.03 µM, first compound 0.0949 µM", "result": 153, "unit": "%"},
      {"measurement": "viability, T/C", "setting": "second compound 0.03 µM, first compound 0.3 µM", "result": 152, "unit": "%"},
      {"measurement": "viability, T/C", "setting": "second compound 0.03 µM, first compound 0.949 µM", "result": 126, "unit": "%"},
      {"measurement": "viability, T/C", "setting": "second compound 0.03 µM, first compound 3 µM", "result": 109, "unit": "%"},
      {"measurement": "viability, T/C", "setting": "second compound 0.0949 µM, first compound 0.00949 µM", "result": 80.7, "unit": "%"},
      {"measurement": "viability, T/C", "setting": "second compound 0.0949 µM, first compound 0.03 µM", "result": 99.1, "unit": "%"},
      {"measurement": "viability, T/C", "setting": "second compound 0.0949 µM, first compound 0.0949 µM", "result": 165, "unit": "%"},
      {"measurement": "viability, T/C", "setting": "second compound 0.0949 µM, first compound 0.3 µM", "result": 178, "unit": "%"},
      {"measurement": "viability, T/C", "setting": "second compound 0.0949 µM, first compound 0.949 µM", "result": 121, "unit": "%"},
      {"measurement": "viability, T/C", "setting": "second compound 0.0949 µM, first compound 3 µM", "result": 114, "unit": "%"},
      {"measurement": "viability, T/C", "setting": "second compound 0.3 µM, first compound 0.00949 µM", "result": 112, "unit": "%"},
      {"measurement": "viability, T/C", "setting": "second compound 0.3 µM, first compound 0.03 µM", "result": 109, "unit": "%"},
      {"measurement": "viability, T/C", "setting": "second compound 0.3 µM, first compound 0.0949 µM", "result": 158, "unit": "%"},
      {"measurement": "viability, T/C", "setting": "second compound 0.3 µM, first compound 0.3 µM", "result": 171, "unit": "%"},
      {"measurement": "viability, T/C", "setting": "second compound 0.3 µM, first compound 0.949 µM", "result": 141, "unit": "%"},
      {"measurement": "viability, T/C", "setting": "second compound 0.3 µM, first compound 3 µM", "result": 103, "unit": "%"},
      {"measurement": "viability, T/C", "setting": "second compound 0.949 µM, first compound 0.00949 µM", "result": 90.8, "unit": "%"},
      {"measurement": "viability, T/C", "setting": "second compound 0.949 µM, first compound 0.03 µM", "result": 105, "unit": "%"},
      {"measurement": "viability, T/C", "setting": "second compound 0.949 µM, first compound 0.0949 µM", "result": 134, "unit": "%"},
      {"measurement": "viability, T/C", "setting": "second compound 0.949 µM, first compound 0.3 µM", "result": 184, "unit": "%"},
      {"measurement": "viability, T/C", "setting": "second compound 0.949 µM, first compound 0.949 µM", "result": 134, "unit": "%"},
      {"measurement": "viability, T/C", "setting": "second compound 0.949 µM, first compound 3 µM", "result": 95.2, "unit": "%"},
      {"measurement": "viability, T/C", "setting": "second compound 3 µM, first compound 0.00949 µM", "result": 109, "unit": "%"},
      {"measurement": "viability, T/C", "setting": "second compound 3 µM, first compound 0.03 µM", "result": 127, "unit": "%"},
      {"measurement": "viability, T/C", "setting": "second compound 3 µM, first compound 0.0949 µM", "result": 175, "unit": "%"},
      {"measurement": "viability, T/C", "setting": "second compound 3 µM, first compound 0.3 µM", "result": 166, "unit": "%"},
      {"measurement": "viability, T/C", "setting": "second compound 3 µM, first compound 0.949 µM", "result": 122, "unit": "%"},
      {"measurement": "viability, T/C", "setting": "second compound 3 µM, first compound 3 µM", "result": 105, "unit": "%"}
    ]},
    {"smiles": "Cn1ncnc1[C@H]1c2n[nH]c(=O)c3cc(F)cc(c23)N[C@@H]1c1ccc(F)cc1", "note": "+ CNC(C)C(=O)NC1CN(S(=O)(=O)c2cccc(S(=O)(=O)N3CCC4CCC(C(=O)NC(c5ccccc5)c5ccccc5)N4C(=O)C(NC(=O)C(C)NC)C3)c2)CCC2CCC(C(=O)NC(c3ccccc3)c3ccccc3)N2C1=O", "values": [
      {"measurement": "IC50", "setting": "second compound 0.01 µM", "result": "> 0.1", "unit": "µM"},
      {"measurement": "IC50", "setting": "second compound 0.0316 µM", "result": "> 0.1", "unit": "µM"},
      {"measurement": "IC50", "setting": "second compound 0.1 µM", "result": "> 0.1", "unit": "µM"},
      {"measurement": "IC50", "setting": "second compound 0.316 µM", "result": "> 0.1", "unit": "µM"},
      {"measurement": "IC50", "setting": "second compound 1 µM", "result": "> 0.1", "unit": "µM"},
      {"measurement": "viability, T/C", "setting": "second compound 0.01 µM, first compound 0.000316 µM", "result": 78.9, "unit": "%"},
      {"measurement": "viability, T/C", "setting": "second compound 0.01 µM, first compound 0.001 µM", "result": 91.9, "unit": "%"},
      {"measurement": "viability, T/C", "setting": "second compound 0.01 µM, first compound 0.00316 µM", "result": 95.9, "unit": "%"},
      {"measurement": "viability, T/C", "setting": "second compound 0.01 µM, first compound 0.01 µM", "result": 101, "unit": "%"},
      {"measurement": "viability, T/C", "setting": "second compound 0.01 µM, first compound 0.0316 µM", "result": 89.3, "unit": "%"},
      {"measurement": "viability, T/C", "setting": "second compound 0.01 µM, first compound 0.1 µM", "result": 95.2, "unit": "%"},
      {"measurement": "viability, T/C", "setting": "second compound 0.0316 µM, first compound 0.000316 µM", "result": 103, "unit": "%"},
      {"measurement": "viability, T/C", "setting": "second compound 0.0316 µM, first compound 0.001 µM", "result": 98.5, "unit": "%"},
      {"measurement": "viability, T/C", "setting": "second compound 0.0316 µM, first compound 0.00316 µM", "result": 94.8, "unit": "%"},
      {"measurement": "viability, T/C", "setting": "second compound 0.0316 µM, first compound 0.01 µM", "result": 104, "unit": "%"},
      {"measurement": "viability, T/C", "setting": "second compound 0.0316 µM, first compound 0.0316 µM", "result": 104, "unit": "%"},
      {"measurement": "viability, T/C", "setting": "second compound 0.0316 µM, first compound 0.1 µM", "result": 92.4, "unit": "%"},
      {"measurement": "viability, T/C", "setting": "second compound 0.1 µM, first compound 0.000316 µM", "result": 95.3, "unit": "%"},
      {"measurement": "viability, T/C", "setting": "second compound 0.1 µM, first compound 0.001 µM", "result": 97.1, "unit": "%"},
      {"measurement": "viability, T/C", "setting": "second compound 0.1 µM, first compound 0.00316 µM", "result": 101, "unit": "%"},
      {"measurement": "viability, T/C", "setting": "second compound 0.1 µM, first compound 0.01 µM", "result": 100, "unit": "%"},
      {"measurement": "viability, T/C", "setting": "second compound 0.1 µM, first compound 0.0316 µM", "result": 96, "unit": "%"},
      {"measurement": "viability, T/C", "setting": "second compound 0.1 µM, first compound 0.1 µM", "result": 89, "unit": "%"},
      {"measurement": "viability, T/C", "setting": "second compound 0.316 µM, first compound 0.000316 µM", "result": 94.2, "unit": "%"},
      {"measurement": "viability, T/C", "setting": "second compound 0.316 µM, first compound 0.001 µM", "result": 97.4, "unit": "%"},
      {"measurement": "viability, T/C", "setting": "second compound 0.316 µM, first compound 0.00316 µM", "result": 94.8, "unit": "%"},
      {"measurement": "viability, T/C", "setting": "second compound 0.316 µM, first compound 0.01 µM", "result": 95.3, "unit": "%"},
      {"measurement": "viability, T/C", "setting": "second compound 0.316 µM, first compound 0.0316 µM", "result": 97.8, "unit": "%"},
      {"measurement": "viability, T/C", "setting": "second compound 0.316 µM, first compound 0.1 µM", "result": 90.7, "unit": "%"},
      {"measurement": "viability, T/C", "setting": "second compound 1 µM, first compound 0.000316 µM", "result": 85, "unit": "%"},
      {"measurement": "viability, T/C", "setting": "second compound 1 µM, first compound 0.001 µM", "result": 98.5, "unit": "%"},
      {"measurement": "viability, T/C", "setting": "second compound 1 µM, first compound 0.00316 µM", "result": 93.3, "unit": "%"},
      {"measurement": "viability, T/C", "setting": "second compound 1 µM, first compound 0.01 µM", "result": 83.8, "unit": "%"},
      {"measurement": "viability, T/C", "setting": "second compound 1 µM, first compound 0.0316 µM", "result": 107, "unit": "%"},
      {"measurement": "viability, T/C", "setting": "second compound 1 µM, first compound 0.1 µM", "result": 85.5, "unit": "%"}
    ]}
  ]
}
